Measured values from publication PMC4519180, “Fluorescence Polarization Screening Assays for Small Molecule Allosteric Modulators of ABL Kinase Function” (PLoS ONE, 2015).

What was measured:
[1] = test system: wild type ABL core expressed in 293T cells; experiment: ABL core autophosphorylation in transfected 293T cells (immunoblot); type: cell-based, human; details: for Effect on ABL phosphorylation (pY412, pY245, pY89), compound alone: compound 142 1–10 μM or DPH 10 μM
Protocol: ABL core proteins were expressed in human 293T cells and analyzed for kinase activity as described elsewhere. Briefly, cells were grown overnight in 60 mm plates, transfected with an expression vector for the wild type ABL core, and treated with compounds 2 h post- transfection. Cells were lysed by sonication 24 h later, and cell lysates clarified by centrifugation. ABL was immunoprecipitated via the C-terminal His-tag, resolved by SDS-PAGE, and transferred to nitrocellulose membranes for immunoblot analysis with antibodies to the ABL protein and the three autophosphorylation sites: pTyr412 (activation loop), pTyr245 (SH2-kinase linker), and pTyr89 (SH3 domain).

[2] = molecular target: T1, wild type ABL kinase core (Homo sapiens, UniProt P00519, DEL15-56); experiment: ADP Quest kinetic kinase assay, wild type ABL core; type: biochemical; details: for Activation constant Kact: concentration giving half-maximum velocity; for Activation constant Kact / Vmax: mean ± SE; for Vmax: maximal reaction velocity with activator; for Vmax/Kact: overall enhancement of catalytic efficiency
T1 construct: ABL core proteins (residues 1–531 with an internal deletion of residues 15–56); made in house; host or cells: Sf9 insect cells
Protocol: (§1) The ADP Quest assay (DiscoverRx), which fluorimetrically measures kinase activity as the production of ADP, was used to determine ABL kinase reaction velocities. Assays were performed in quadruplicate in black 384 well plates (Corning #3571) in reaction volumes of 10 μL/well. Recombinant kinase protein concentrations were fixed at 40 ng/well for the wild type ABL core, 9 ng/well for the high affinity linker ABL core, and 250 ng/well for the SRC family kinase HCK. The Tyr2 substrate peptide for ABL (EAIYAAPFAKKK) as well as the SFK substrate peptide (YIYGSFK) were dissolved in the ADP Quest assay buffer (15 mM HEPES, pH 7.4, 20 mM NaCl, 1 mM EGTA, 0.02% Tween-20, 10 mM MgCl2, 0.1 mg/ml bovine γ-globulins), while ATP stocks were prepared in 10 mM Tris-HCl (pH 7.0). Each kinase reaction was initiated by the addition of ATP and read at 5 min intervals for 3 h in a SpectraMax M5 Microplate reader (Molecular Devices). To determine the substrate Km for ABL kinases, the ATP concentration was fixed at 50 μM and the substrate peptide was serially diluted from 0.2–200 μM. For ABL kinase ATP Km determination, the substrate concentration was fixed at the respective substrate Km for each of the kinases, and the ATP concentration was titrated over the range of 0.2–200 μM. The resulting progress curves were analyzed according to the method of Moroco et al.. Briefly, raw fluorescence data were corrected for non-enzymatic ADP production (no kinase or substrate control) and kinase auto-phosphorylation (rate observed in the absence of substrate), and converted to pmol ADP produced using an ADP standard curve generated under the same reaction conditions. The resulting values were normalized to the amount of kinase present in each reaction, and plotted against time. The linear portion of each progress curve was fit by regression analysis to determine the reaction velocity. Substrate and ATP Km values were determined by non-linear regression analysis using the Michaelis-Menten equation (GraphPad Prism 6).
Half-maximal effective concentrations (EC50) and activation constants (Kact) were determined for the ABL kinase core by both dipyridamole and the known ABL activator, DPH (5-(1,3-diaryl-1H-pyrazol-4-yl)hydantoin; Sigma-Aldrich). The kinase was pre-incubated with each compound (10 nM to 100 μM) for 30 min at room temperature, followed by kinase assay with the substrate and ATP concentrations fixed at their respective Km values. The rate of each reaction was plotted against compound concentration, and analyzed by non-linear regression analysis (GraphPad Prism 6) to determine the EC50 value. To determine the activation constant Kact, the basal rate of kinase activity was subtracted from the rates of reaction in the presence of each compound concentration, and plotted as a function of compound concentration. The resulting curves obeyed saturation kinetics and were best-fit by the following equation [19]: Va= Vact[L]/(Kact+[L]) where Va is the reaction velocity in the presence of each activator concentration, Vact is the maximal reaction velocity, L is the activator concentration, and Kact is the activator concentration that yields half-maximal reaction velocity.

[3] = molecular target: T1, wild type ABL kinase core; experiment: ADP Quest kinetic kinase assay, wild type ABL core; type: biochemical; details: 30 min pre-incubation; ATP and substrate at Km; mean ± SE, triplicate; read-out: EC50 for activation of ABL core
[4] = test system: ABL core with high-affinity linker (HAL); experiment: ADP Quest kinetic kinase assay, high-affinity linker ABL core; type: biochemical, human; details: 10 μM; ATP and substrate at Km
Protocol: as §1, with “Recombinant kinase protein concentrations were fixed at 40 ng/well for the wild type ABL core, 9 ng/well for the high affinity linker ABL core, and 250 ng/well for the SRC family kinase HCK.” left out, “Tyr2” left out, “([…])” for “(YIYGSFK)”, “To determine the substrate Km for ABL kinases, the ATP concentration was fixed at 50 μM and the substrate peptide was serially diluted from 0.2–200 μM. For ABL kinase ATP Km determination, the substrate concentration was fixed at the respective substrate Km for each of the kinases, and the ATP concentration was titrated over the range of 0.2–200 μM.” left out, “The linear portion of each progress curve was fit by regression analysis to determine the reaction velocity.” left out

ABL SH3 domain = molecular target: T2, ABL SH3 domain (Homo sapiens, UniProt P00519); experiment: FP assay with isolated ABL SH3 domain and p41 probe; type: binding; details: significant inhibition at 3 and 10 μM
T2 construct: we performed FP assays with the N32L protein as well as the isolated ABL SH3 domain; made in house
Protocol: (§2) Fluorescence Polarization (FP) experiments were performed in quadruplicate in low volume black 384 well plates with a non-binding surface (Corning; catalog # 3676). Peptides and proteins were added to each well in FP assay buffer (20 mM Tris-HCl, pH 8.3) for a final assay volume of 20 μL and mixed by shaking for 5 min at room temperature. The FP signal in millipolarization (mP) units was measured at an excitation wavelength of 485 nm and emission wavelength of 515 nm in a SpectraMax M5 microplate reader (Molecular Devices) using the Softmax Pro software (version 5.4.1). Each plate was read three times and the values were averaged prior to analysis. Raw fluorescence intensity was also read at the same wavelengths for each assay.

SRC-family kinase HCK = molecular target: T3, SRC-family kinase HCK (Homo sapiens, UniProt P08631, Q523E/Q524E/Q525I); experiment: ADP Quest kinetic kinase assay, HCK; type: biochemical; details: 1 μM; recombinant near-full-length downregulated HCK
T3 construct: made in house; host or cells: Sf9 insect cells
Protocol: The ADP Quest assay (DiscoverRx), which fluorimetrically measures kinase activity as the production of ADP, was used to determine ABL kinase reaction velocities. Assays were performed in quadruplicate in black 384 well plates (Corning #3571) in reaction volumes of 10 μL/well. Recombinant kinase protein concentrations were fixed at 40 ng/well for the wild type ABL core, 9 ng/well for the high affinity linker ABL core, and 250 ng/well for the SRC family kinase HCK. […] Each kinase reaction was initiated by the addition of ATP and read at 5 min intervals for 3 h in a SpectraMax M5 Microplate reader (Molecular Devices). […] The resulting progress curves were analyzed according to the method of Moroco et al.. Briefly, raw fluorescence data were corrected for non-enzymatic ADP production (no kinase or substrate control) and kinase auto-phosphorylation (rate observed in the absence of substrate), and converted to pmol ADP produced using an ADP standard curve generated under the same reaction conditions. […] Substrate and ATP Km values were determined by non-linear regression analysis using the Michaelis-Menten equation (GraphPad Prism 6).

ABL N32L WT protein = molecular target: T4, ABL N32L WT protein (Homo sapiens, UniProt P00519, DEL15-56); experiment: Differential scanning fluorimetry; type: binding; details: compound 100 μM, N32L 1 μM, vs DMSO
T4 construct: corresponding to residues 2–255 with an internal deletion of residues 15–56; Gly-His6 (GHHHHHH) (N); made in house; host or cells: E. coli Rosetta2(DE3)pLysS
Protocol: Hit compounds (100 μM) were pre-incubated with the ABL N32L WT protein (1 μM) for 30 minutes in bicine assay buffer (10 mM bicine, 150 mM NaCl, pH 8.0). SYPRO Orange (Sigma) was added at 5X final concentration and fluorimetry profiles were acquired with a StepOnePlus real-time quantitative PCR instrument (Applied Biosystems) and software (version 2.3). Assays were performed in duplicate in sealed MicroAmp Fast 96-well qPCR plates (Applied Biosystems), and control reactions without proteins were included to correct for background fluorescence. Assays were equilibrated at 25°C for 2 minutes, followed by an increase in temperature at the rate of 1% (1.6°C/min) to 99°C, with continuous data collection. Mean fluorescence intensities, after subtracting background fluorescence, were plotted against temperature. Non-linear regression analysis using the Boltzmann sigmoid function in GraphPad Prism 6 was used to determine the Tm values, the midpoint of the melt curve between the minimum and maximum fluorescence intensities.

ABL N32L protein = molecular target: T5, ABL N32L protein (Homo sapiens, UniProt P00519, DEL15-56); experiment: Surface plasmon resonance, immobilized ABL N32L; type: binding
T5 construct: corresponding to residues 2–255 with an internal deletion of residues 15–56; Gly-His6 (GHHHHHH) (N); made in house; host or cells: E. coli Rosetta2(DE3)pLysS
Protocol: (§3) SPR analysis was performed on a BIAcore T100 instrument (GE Healthcare) using four-channel CM5 biosensor chips at 25°C. Recombinant purified ABL proteins were covalently attached to the CM5 chip via standard amine coupling chemistry. Compound 142 (dipyridamole; Prestwick Chemical) was prepared in 20 mM Tris-HCl, pH 8.3, 150 mM NaCl and 0.1% DMSO and flowed past the immobilized ABL protein channel and a reference channel on the biosensor at a flow rate of 50 μL/min for 3 min over a range of concentrations. The initial binding reaction was followed by dissociation for 5 min, and the chip surface was regenerated using 20 mM Tris-HCl, pH 8.3, 150 mM NaCl, 0.1% DMSO, 0.05% Tween 20 and 1 mM DTT at a flow rate of 50 μL/min for 10 min. Sensorgrams were recorded in triplicate, corrected for buffer effects, and fitted with the 1:1 Langmuir binding model using the BIAevaluation software suite version 2.0.4 (GE Healthcare).

[5] = molecular target: T6, ABL N32L protein (Ncap-SH3-SH2-linker) (Homo sapiens, UniProt P00519, DEL15-56); experiment: Fluorescence polarization (FP) assay, ABL N32L protein with p41 probe peptide; type: binding
T6 construct: corresponding to residues 2–255 with an internal deletion of residues 15–56; Gly-His6 (GHHHHHH) (N); made in house; host or cells: E. coli Rosetta2(DE3)pLysS
Protocol: as §2
A collection of 1200 FDA-approved small molecules (Prestwick Chemical, Inc.) was used in a pilot screen with the FP assay. Each library compound was screened at 10 μM and a final DMSO concentration of 1%. Compounds were added to 384-well assay plates first, followed by a pre-mixed complex of the ABL N32L protein (25 μg) and the p41 probe peptide (50 nM). Each plate also contained twenty-eight wells of the wild type N32L protein plus p41 probe and DMSO as positive controls as well as twenty-eight wells of mutant ABL N32L-W118A protein plus p41 probe peptide and DMSO as negative controls. Each plate was mixed on the shaker for 5 min, read three consecutive times, and the average FP signal for each well was calculated. To identify potential hit compounds, three measures were used: (i) average FP signal; (ii) control normalized percent inhibition, in which the FP signal with each compound was normalized to the mean FP signal of the positive and negative plate controls according to the formula: [(sample FP–mean FPWT) / (mean FPW118A –mean FPWT) x 100] [22, 23]; (iii) Z score, a statistical measure of variation of the mean sample FP signal that is independent of plate controls, calculated according to the formula: [(sample FP–mean FPsamples) / standard deviationsamples] [22, 23]. […]

isolated ABL SH3 domain = molecular target: T7, isolated ABL SH3 domain (Homo sapiens, UniProt P00519); experiment: Surface plasmon resonance, isolated SH3 domain; type: binding; details: SPR, data not shown
T7 construct: we performed FP assays with the N32L protein as well as the isolated ABL SH3 domain; made in house
Protocol: as §3

T1 sequence (P00519 with tags, fused parts or gaps isoform P00519-2 DEL15-56): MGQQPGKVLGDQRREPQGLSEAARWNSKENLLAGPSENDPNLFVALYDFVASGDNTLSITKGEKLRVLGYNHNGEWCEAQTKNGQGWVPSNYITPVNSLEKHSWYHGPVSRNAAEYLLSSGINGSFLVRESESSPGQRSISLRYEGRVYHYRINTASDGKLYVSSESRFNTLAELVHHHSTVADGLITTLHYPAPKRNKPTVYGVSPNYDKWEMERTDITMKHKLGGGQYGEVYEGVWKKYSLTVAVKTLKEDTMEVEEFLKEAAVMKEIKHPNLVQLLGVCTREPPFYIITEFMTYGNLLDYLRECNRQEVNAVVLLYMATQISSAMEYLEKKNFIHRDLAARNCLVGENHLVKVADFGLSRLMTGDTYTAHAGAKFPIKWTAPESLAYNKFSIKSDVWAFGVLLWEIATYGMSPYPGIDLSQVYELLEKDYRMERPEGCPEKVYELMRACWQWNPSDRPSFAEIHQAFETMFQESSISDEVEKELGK
T6 sequence (P00519 with tags, fused parts or gaps isoform P00519-2 DEL15-56): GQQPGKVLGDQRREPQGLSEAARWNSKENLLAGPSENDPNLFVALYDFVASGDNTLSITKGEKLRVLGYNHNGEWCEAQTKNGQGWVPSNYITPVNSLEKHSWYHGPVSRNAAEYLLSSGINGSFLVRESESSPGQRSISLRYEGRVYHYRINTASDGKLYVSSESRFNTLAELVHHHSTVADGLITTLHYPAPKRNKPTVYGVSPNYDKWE
T3 sequence (P08631 78-526 Q523E/Q524E/Q525I limits assumed): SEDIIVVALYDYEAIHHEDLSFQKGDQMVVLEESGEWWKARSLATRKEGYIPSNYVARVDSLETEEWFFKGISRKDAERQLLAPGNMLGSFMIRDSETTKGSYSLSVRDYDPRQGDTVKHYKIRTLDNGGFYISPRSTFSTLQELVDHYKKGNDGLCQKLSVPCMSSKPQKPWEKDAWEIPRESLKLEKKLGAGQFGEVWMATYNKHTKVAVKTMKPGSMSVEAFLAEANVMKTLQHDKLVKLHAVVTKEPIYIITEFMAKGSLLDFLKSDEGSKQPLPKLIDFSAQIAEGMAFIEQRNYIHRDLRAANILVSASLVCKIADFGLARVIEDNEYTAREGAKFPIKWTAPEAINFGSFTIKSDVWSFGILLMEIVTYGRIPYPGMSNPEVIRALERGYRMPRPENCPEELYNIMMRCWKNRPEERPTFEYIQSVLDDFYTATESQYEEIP
T2 sequence (P00519 61-121 limits assumed): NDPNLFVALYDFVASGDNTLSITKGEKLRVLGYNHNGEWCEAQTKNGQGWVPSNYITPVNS
T7 sequence (P00519 61-121 limits assumed): as above

Effect of unlabeled peptide on FP signal (competition) ([5]; p41 probe 50 nM, N32L 20 μg/well, unlabeled peptide 2.5 to 100 μM) | Compound | Effect on ABL phosphorylation (pY412, pY245, pY89), compound alone [1] | Activation constant Kact [2] [µM] | Vmax [2] [µM] | Vmax/Kact [2] | EC50 [3] [µM] | Effect on kinase activity of ABL core with HAL substitution [4] | FP signal with ABL SH3 protein over compound concentration range (ABL SH3 domain) | Effect on HCK reaction velocity (SRC-family kinase HCK) | Effect on ABL phosphorylation (pY412, pY245, pY89) in the presence of DPH ([1]; compound 142 1–10 μM plus DPH 10 μM) | Stimulation of wild type ABL kinase activity relative to DMSO control ([2]; 10 μM, ATP and substrate at Km) | Decrease in Tm (ABL N32L WT protein) | kon (ABL N32L protein; 1:1 Langmuir binding model, 25°C, read-out: Association rate constant) [M⁻¹ s⁻¹] | koff (ABL N32L protein; 1:1 Langmuir binding model, 25°C, read-out: Dissociation rate constant) [s⁻¹] | Kd (ABL N32L protein; SPR, ABL N32L protein, read-out: Equilibrium dissociation constant (KD), ratio kd/ka) [µM] | Inhibition of FP signal relative to DMSO controls (retest) ([5]; 10 μM, quadruplicate, screening assay conditions, p < 0.05) | FP signal with ABL N32L protein over compound concentration range ([5]; significant inhibition at 3 and 10 μM) | Kd (isolated ABL SH3 domain) [µM]
 | 5-(1,3-diaryl-1H-pyrazol-4-yl)hydantoin [DPH] | very small effect | 1.02 ± 0.07 | 1.90 ± 0.4 | 1.86 | 1.11 ± 0.5 | did not activate |  |  |  |  |  |  |  |  |  |  | 
 | OCCN(CCO)c1nc(N2CCCCC2)c2nc(N(CCO)CCO)nc(N3CCCCC3)c2n1 [compound 142, dipyridamole] | did not affect phosphorylation | 0.4 ± 0.02 | 3.2 ± 0.28 | 8.00 | 0.63 ± 0.07 | did not affect | concentration-dependent decrease | no effect | remarkable enhancement of phosphorylation | about 40% | more than 2 °C | 3870 ± 590000 | 0.027 ± 7.2e-05 | 6.9 | significant inhibition | concentration-dependent decrease | 30
no effect | QKEGERALPSIP [non-specific peptide] |  |  |  |  |  |  |  |  |  |  |  |  |  |  |  |  | 
